Results taken from patent US9708316B2 (BRISTOL-MYERS SQUIBB COMPANY, priority 2014, dated 2017).

Assays:
HIS-TGFβR2 WT = HIS-TGFβR2 WT (Homo sapiens, UniProt P37173); assay: HTRF probe-displacement assay, HIS-TGFβR2 WT; type: binding
HIS-TGFβR1 T204D = biological target: T1, HIS-TGFβR1 T204D (Homo sapiens, UniProt P36897, T204D); assay: HTRF probe-displacement assay, HIS-TGFβR1 T204D; type: binding; settings: read-out: TGFβR1 (μM) IC50
T1 sequence (P36897 34-503 T204D): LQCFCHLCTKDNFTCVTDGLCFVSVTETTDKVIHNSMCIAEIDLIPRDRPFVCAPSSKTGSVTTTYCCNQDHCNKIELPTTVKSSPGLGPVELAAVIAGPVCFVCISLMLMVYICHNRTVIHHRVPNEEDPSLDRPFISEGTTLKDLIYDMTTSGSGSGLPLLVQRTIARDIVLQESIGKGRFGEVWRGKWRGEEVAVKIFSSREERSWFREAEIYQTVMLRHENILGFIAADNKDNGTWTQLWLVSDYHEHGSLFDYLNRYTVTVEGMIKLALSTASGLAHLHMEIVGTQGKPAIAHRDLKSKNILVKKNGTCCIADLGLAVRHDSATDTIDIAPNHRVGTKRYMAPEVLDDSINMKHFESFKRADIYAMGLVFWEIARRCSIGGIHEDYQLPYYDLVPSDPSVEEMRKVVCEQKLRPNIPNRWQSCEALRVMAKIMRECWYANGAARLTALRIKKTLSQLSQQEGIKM

Chain of HIS-TGFβR2 WT (P37173 23-567): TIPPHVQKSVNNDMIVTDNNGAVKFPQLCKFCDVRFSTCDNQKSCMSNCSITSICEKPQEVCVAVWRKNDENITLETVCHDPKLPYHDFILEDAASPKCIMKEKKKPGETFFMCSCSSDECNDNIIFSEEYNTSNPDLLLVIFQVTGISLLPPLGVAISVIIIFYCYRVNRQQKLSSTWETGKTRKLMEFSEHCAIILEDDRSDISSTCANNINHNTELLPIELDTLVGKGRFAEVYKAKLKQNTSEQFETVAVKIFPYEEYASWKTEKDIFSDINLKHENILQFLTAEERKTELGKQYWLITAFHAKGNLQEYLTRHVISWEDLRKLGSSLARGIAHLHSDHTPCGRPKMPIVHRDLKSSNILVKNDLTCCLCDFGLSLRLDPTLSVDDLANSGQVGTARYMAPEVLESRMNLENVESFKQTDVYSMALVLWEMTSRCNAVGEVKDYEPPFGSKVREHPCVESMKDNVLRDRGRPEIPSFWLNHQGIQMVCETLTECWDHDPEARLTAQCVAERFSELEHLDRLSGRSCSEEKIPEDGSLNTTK

Row | Structure (SMILES) | IC50 (HIS-TGFβR2 WT) [µM] | IC50 (HIS-TGFβR1 T204D) [µM]
1 | CC(=O)Nc1cc(-c2[nH]c3c(Cl)ccnc3c2-c2ccc(Cl)cn2)ccn1 [Example 63, N-{4-[7-Chloro-3-(5-chloropyridin-2-yl)-1H-pyrrolo[3,2-b]pyridin-2-yl]pyridin-2-yl}acetamide] | > 15 | 0.019
2 | CC(=O)Nc1cc(-c2[nH]c3cc(Cl)cnc3c2-c2cccc(CO)n2)ccn1 [Example 67, N-(4-{6-Chloro-3-[6-(hydroxymethyl)pyridin-2-yl]-1H-pyrrolo[3,2-b]pyridin-2-yl}pyridin-2-yl)acetamide] | 0.36 | 0.037
3 | COc1ccc(-c2c(-c3ccnc(NC(C)=O)c3)[nH]c3cc(Cl)cnc23)cn1 [Example 43, N-{4-[6-Chloro-3-(6-methoxypyridin-3-yl)-1H-pyrrolo[3,2-b]pyridin-2-yl]pyridin-2-yl}acetamide] | 0.068 | 0.002
4 | O=C(CNCCCN1CCOCC1)Nc1cc(-c2[nH]c3cc(Cl)cnc3c2-c2ccc(F)cn2)ccn1 [Example 89, N-{4-[6-Chloro-3-(5-fluoropyridin-2-yl)-1H-pyrrolo[3,2-b]pyridin-2-yl]pyridin-2-yl}-2-{[3-(morpholin-4-yl)propyl]amino}acetamide] | 4.81 | 0.003
5 | CC(=O)Nc1cc(-c2[nH]c3cc(Cl)cnc3c2-c2ccc(F)cn2)ccn1 [Example 42, N-{4-[6-Chloro-3-(5-fluoropyridin-2-yl)-1H-pyrrolo[3,2-b]pyridin-2-yl]pyridin-2-yl}acetamide] | 0.46 | 0.004
6 | COc1ccc(-c2c(-c3ccnc(NC(C)=O)c3)[nH]c3cc(-c4c(C)noc4C)cnc23)nc1 [Example 93, N-{4-[6-(Dimethyl-1,2-oxazol-4-yl)-3-(5-methoxypyridin-2-yl)-1H-pyrrolo[3,2-b]pyridin-2-yl]pyridin-2-yl}acetamide] | > 15 | 0.003
7 | COc1ccc(-c2c(-c3ccnc(NC(C)=O)c3)[nH]c3cc(Br)cnc23)nc1 [Example 83, N-{4-[6-Bromo-3-(5-methoxypyridin-2-yl)-1H-pyrrolo[3,2-b]pyridin-2-yl]pyridin-2-yl}acetamide] | > 15 | 0.002
8 | COc1ccc(-c2c(-c3ccnc(NC(C)=O)c3)[nH]c3cc(C#N)cnc23)cn1 [Example 78, N-(4-(6-Cyano-3-(6-methoxypyridin-3-yl)-1H-pyrrolo[3,2-b]pyridin-2-yl)pyridin-2-yl)acetamide] | 0.16 | 0.003
9 | CC(=O)Nc1cc(-c2[nH]c3cccnc3c2-c2ccc(Cl)c(C)n2)ccn1 [Example 33, N-{4-[3-(5-Chloro-6-methylpyridin-2-yl)-1H-pyrrolo[3,2-b]pyridin-2-yl]pyridin-2-yl}acetamide] | > 15 | 0.005
10 | CC(=O)Nc1cc(-c2[nH]c3cccnc3c2-c2cc(C)c(F)cn2)ccn1 [Example 24, N-{4-[3-(5-Fluoro-4-methylpyridin-2-yl)-1H-pyrrolo[3,2-b]pyridin-2-yl]pyridin-2-yl}acetamide] | 0.21 | 0.018
11 | CC(=O)Nc1cc(-c2[nH]c3cccnc3c2-c2ccc(Cl)nc2)ccn1 [Example 9, N-{4-[3-(6-Chloropyridin-3-yl)-1H-pyrrolo[3,2-b]pyridin-2-yl]pyridin-2-yl}acetamide] | 0.33 | 0.023

Second part, the compound after the results:

Row | IC50 (HIS-TGFβR2 WT) [µM] | IC50 (HIS-TGFβR1 T204D) [µM] | Structure (SMILES)
12 | 1.12 | 0.002 | COc1ccc(-c2c(-c3ccnc(NC(=O)CN4CCOCC4)c3)[nH]c3cc(Cl)cnc23)cn1 [Example 290, N-(4-(6-Chloro-3-(6-methoxypyridin-3-yl)-1H-pyrrolo[3,2-b]pyridin-2-yl)pyridin-2-yl)-2-morpholinoacetamide]
13 | > 15 | 0.049 | CC(=O)Nc1cc(-c2[nH]c3cc(Cl)cnc3c2-c2cccc(C(C)C)n2)ccn1 [Example 260, N-(4-(6-Chloro-3-(6-isopropylpyridin-2-yl)-1H-pyrrolo[3,2-b]pyridin-2-yl)pyridin-2-yl)acetamide]
14 | 0.114 | 0.001 | COc1ccc(-c2c(-c3ccnc(NC(C)=O)c3)[nH]c3c(CO)ccnc23)cn1 [Example 274, N-(4-(7-(Hydroxymethyl)-3-(6-methoxypyridin-3-yl)-1H-pyrrolo[3,2-b]pyridin-2-yl)pyridin-2-yl)acetamide]
15 | > 15 | 0.016 | CNCc1cnc2c(-c3ccc(OC)cn3)c(-c3ccnc(NC(C)=O)c3)[nH]c2c1 [Example 293, N-(4-(3-(5-Methoxypyridin-2-yl)-6-((methylamino)methyl)-1H-pyrrolo[3,2-b]pyridin-2-yl)pyridin-2-yl)acetamide]
16 | > 15 | 0.0053 | COc1ccc(-c2c(-c3ccnc(NC(C)=O)c3)[nH]c3cc(N4CCOCC4)cnc23)nc1 [Example 164, N-(4-(3-(5-Methoxypyridin-2-yl)-6-morpholino-1H-pyrrolo[3,2-b]pyridin-2-yl)pyridin-2-yl)acetamide]
17 | 0.709 | 0.011 | CC(=O)Nc1cc(-c2[nH]c3c(CO)ccnc3c2-c2ccc(Cl)nc2)ccn1 [Example 278, N-(4-(3-(6-Chloropyridin-3-yl)-7-(hydroxymethyl)-1H-pyrrolo[3,2-b]pyridin-2-yl)pyridin-2-yl)acetamide]
18 | 0.089 | 0.249 | CC(=O)Nc1cc(-c2[nH]c3cccnc3c2-c2cn[nH]c2)ccn1 [Example 189, N-(4-(3-(1H-Pyrazol-4-yl)-1H-pyrrolo[3,2-b]pyridin-2-yl)pyridin-2-yl)acetamide]
19 | > 15 | 0.55 | CC(=O)Nc1cc(-c2c(-c3cccc(C(F)F)n3)c3ncccc3n2CC(N)=O)ccn1 [Example 114, 2-(2-(2-Acetamidopyridin-4-yl)-3-(6-(difluoromethyl)pyridin-2-yl)-1H-pyrrolo[3,2-b]pyridin-1-yl)acetamide]
20 | 3.47 | 0.001 | CC(=O)Nc1cc(-c2[nH]c3c(CCO)ccnc3c2-c2cccc(C(F)F)n2)ccn1 [Example 155, N-(4-{3-[6-(Difluoromethyl)pyridin-2-yl]-7-(2-hydroxyethyl)-1H-pyrrolo[3,2-b]pyridin-2-yl}pyridin-2-yl)acetamide]
21 | 8.68 | 0.001 | COc1ccc(-c2c(-c3ccnc(NC(=O)CN(C)C)c3)[nH]c3cc(OC)cnc23)nc1 [Example 115, 2-(Dimethylamino)-N-{4-[6-methoxy-3-(5-methoxypyridin-2-yl)-1H-pyrrolo[3,2-b]pyridin-2-yl]pyridin-2-yl}acetamide]
22 | 2 | 0.0939 | CC(=O)Nc1cc(-c2[nH]c3cccnc3c2-c2ccn[nH]2)ccn1 [Example 191, N-(4-(3-(1H-Pyrazol-5-yl)-1H-pyrrolo[3,2-b]pyridin-2-yl)pyridin-2-yl)acetamide]
23 | > 15 | 0.065 | CC(=O)Nc1cc(-c2[nH]c3cc(Cl)cnc3c2-c2ccc(OC(C)C)cn2)ccn1 [Example 254, N-(4-(6-Chloro-3-(5-isopropoxypyridin-2-yl)-1H-pyrrolo[3,2-b]pyridin-2-yl)pyridin-2-yl)acetamide]
24 | 0.225 | 0.0015 | CC(=O)Nc1cc(-c2[nH]c3cccnc3c2-c2ncc(C)s2)ccn1 [Example 202, N-(4-(3-(5-Methylthiazol-2-yl)-1H-pyrrolo[3,2-b]pyridin-2-yl)pyridin-2-yl)acetamide]
